The results in this text go back to ChEMBL document CHEMBL1201862, “PubChem BioAssay data set” (2004).

Active and inactive are the calls of the source.

Data set [1] in a line: inhibitors of intracellular T. cruzi replication, confirmation, NIH3T3 host cells, beta-gal luminescence (AID 2044).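 Note: intracellular parasites grown in NIH/3T3 mouse fibroblasts as host cells; luminescent beta-galactosidase reporter signal from transgenic T. cruzi replicating inside host cells; inhibitors lower the luminescence signal.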 The data set is classed as functional, cell-based.
The nature of data set [2]: microbe, parasite or virus in culture. The settings on record: Mycobacterium tuberculosis. The data set is classed as functional.
Data set [3] can be described thus: cytotoxicity toward NIH3T3 fibroblasts, dose response, counter-screen, cell-based, ATP luminescence, mouse fibroblasts (AID 2010).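 Note: cells exposed to compound for about 90 hours before reading.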 The data set is classed as functional.
The next data set concerns the target T1, Bcl-2-related protein A1 (Mus musculus, UniProt Q07440).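 Note: confirmatory dose–response counterscreen on Bfl-1, used to check hits from a UBC13 polyubiquitin inhibitor campaign.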
T1 sequence (Q07440 whole entry): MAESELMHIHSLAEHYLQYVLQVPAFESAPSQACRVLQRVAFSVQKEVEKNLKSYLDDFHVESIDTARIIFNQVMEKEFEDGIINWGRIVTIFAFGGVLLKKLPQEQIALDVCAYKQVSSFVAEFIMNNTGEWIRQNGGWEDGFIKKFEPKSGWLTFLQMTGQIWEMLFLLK
The data set is classed as functional.

Data set [4] concerns the target T2, Ubiquitin-conjugating enzyme E2 N (Homo sapiens, UniProt P61088).
T2 sequence (P61088 whole entry): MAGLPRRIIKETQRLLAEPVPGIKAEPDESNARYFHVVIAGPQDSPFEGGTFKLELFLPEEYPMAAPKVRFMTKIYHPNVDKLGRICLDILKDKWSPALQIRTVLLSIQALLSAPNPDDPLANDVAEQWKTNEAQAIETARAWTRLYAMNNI
The data set is classed as functional.

Data set [5] addresses T2, Ubiquitin-conjugating enzyme E2 N. The data set is classed as functional. The source holds these as a separate data set.
The target in the next data set is T3, Hexokinase (Trypanosoma brucei, UniProt Q38C41).
T3 sequence (Q38C41 whole entry): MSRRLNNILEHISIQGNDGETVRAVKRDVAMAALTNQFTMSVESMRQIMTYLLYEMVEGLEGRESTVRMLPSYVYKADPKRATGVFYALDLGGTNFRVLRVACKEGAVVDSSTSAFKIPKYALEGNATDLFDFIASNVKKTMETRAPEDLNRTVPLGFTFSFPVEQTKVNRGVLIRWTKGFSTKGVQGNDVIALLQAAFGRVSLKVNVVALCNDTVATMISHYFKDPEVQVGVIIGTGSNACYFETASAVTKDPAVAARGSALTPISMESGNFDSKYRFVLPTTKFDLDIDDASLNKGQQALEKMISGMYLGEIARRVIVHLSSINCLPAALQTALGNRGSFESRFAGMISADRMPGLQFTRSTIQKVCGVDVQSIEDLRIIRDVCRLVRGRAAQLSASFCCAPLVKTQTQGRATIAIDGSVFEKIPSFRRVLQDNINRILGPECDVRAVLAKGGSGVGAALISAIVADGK
In words: Confirmation assay for inhibitors of Trypanosoma brucei hexokinase 1-Analogue-first series. [Related pubchem assays (depositor defined):AID1430, AID1632, AID2516, AID2560, AID2579, AID2600, AID449725, AID492951]. The data set is classed as functional.

In another data set the target is Cytochrome P450 2C9 (Homo sapiens, UniProt P11712).
Data set [6] deals with Peroxisome proliferator-activated receptor gamma/Nuclear receptor coactivator 1 (Homo sapiens, UniProt P37231). In words: TR-FRET dose response biochemical High Throughput Screening assay for agonists of the steroid receptor coactivator 1 (SRC-1) recruitment by the peroxisome proliferator-activated receptor gamma (PPAR gamma): non-selective agonists. [Related pubchem assays (depositor defined):AID1300, AID1808, AID504735, AID631]. The data set is classed as protein assay. For orientation: In TR-FRET formats the signal depends on donor and acceptor labels being close together.
Chain of Peroxisome proliferator-activated receptor gamma/Nuclear receptor coactivator 1 (P37231 whole entry): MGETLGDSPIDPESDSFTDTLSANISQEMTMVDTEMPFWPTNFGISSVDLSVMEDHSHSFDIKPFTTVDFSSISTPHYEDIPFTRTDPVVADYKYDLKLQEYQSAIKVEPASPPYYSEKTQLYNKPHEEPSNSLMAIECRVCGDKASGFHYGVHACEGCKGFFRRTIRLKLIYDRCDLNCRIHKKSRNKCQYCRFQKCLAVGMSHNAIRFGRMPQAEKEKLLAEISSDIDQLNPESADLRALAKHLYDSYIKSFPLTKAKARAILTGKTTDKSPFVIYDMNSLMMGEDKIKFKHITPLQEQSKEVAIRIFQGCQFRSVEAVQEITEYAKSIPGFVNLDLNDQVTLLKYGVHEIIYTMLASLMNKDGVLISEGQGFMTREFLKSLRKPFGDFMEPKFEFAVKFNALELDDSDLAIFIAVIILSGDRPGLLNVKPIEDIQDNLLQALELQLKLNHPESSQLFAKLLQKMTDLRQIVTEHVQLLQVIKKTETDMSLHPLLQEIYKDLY
Chain of Peroxisome proliferator-activated receptor gamma/Nuclear receptor coactivator 1 (Q15788 whole entry, further chain): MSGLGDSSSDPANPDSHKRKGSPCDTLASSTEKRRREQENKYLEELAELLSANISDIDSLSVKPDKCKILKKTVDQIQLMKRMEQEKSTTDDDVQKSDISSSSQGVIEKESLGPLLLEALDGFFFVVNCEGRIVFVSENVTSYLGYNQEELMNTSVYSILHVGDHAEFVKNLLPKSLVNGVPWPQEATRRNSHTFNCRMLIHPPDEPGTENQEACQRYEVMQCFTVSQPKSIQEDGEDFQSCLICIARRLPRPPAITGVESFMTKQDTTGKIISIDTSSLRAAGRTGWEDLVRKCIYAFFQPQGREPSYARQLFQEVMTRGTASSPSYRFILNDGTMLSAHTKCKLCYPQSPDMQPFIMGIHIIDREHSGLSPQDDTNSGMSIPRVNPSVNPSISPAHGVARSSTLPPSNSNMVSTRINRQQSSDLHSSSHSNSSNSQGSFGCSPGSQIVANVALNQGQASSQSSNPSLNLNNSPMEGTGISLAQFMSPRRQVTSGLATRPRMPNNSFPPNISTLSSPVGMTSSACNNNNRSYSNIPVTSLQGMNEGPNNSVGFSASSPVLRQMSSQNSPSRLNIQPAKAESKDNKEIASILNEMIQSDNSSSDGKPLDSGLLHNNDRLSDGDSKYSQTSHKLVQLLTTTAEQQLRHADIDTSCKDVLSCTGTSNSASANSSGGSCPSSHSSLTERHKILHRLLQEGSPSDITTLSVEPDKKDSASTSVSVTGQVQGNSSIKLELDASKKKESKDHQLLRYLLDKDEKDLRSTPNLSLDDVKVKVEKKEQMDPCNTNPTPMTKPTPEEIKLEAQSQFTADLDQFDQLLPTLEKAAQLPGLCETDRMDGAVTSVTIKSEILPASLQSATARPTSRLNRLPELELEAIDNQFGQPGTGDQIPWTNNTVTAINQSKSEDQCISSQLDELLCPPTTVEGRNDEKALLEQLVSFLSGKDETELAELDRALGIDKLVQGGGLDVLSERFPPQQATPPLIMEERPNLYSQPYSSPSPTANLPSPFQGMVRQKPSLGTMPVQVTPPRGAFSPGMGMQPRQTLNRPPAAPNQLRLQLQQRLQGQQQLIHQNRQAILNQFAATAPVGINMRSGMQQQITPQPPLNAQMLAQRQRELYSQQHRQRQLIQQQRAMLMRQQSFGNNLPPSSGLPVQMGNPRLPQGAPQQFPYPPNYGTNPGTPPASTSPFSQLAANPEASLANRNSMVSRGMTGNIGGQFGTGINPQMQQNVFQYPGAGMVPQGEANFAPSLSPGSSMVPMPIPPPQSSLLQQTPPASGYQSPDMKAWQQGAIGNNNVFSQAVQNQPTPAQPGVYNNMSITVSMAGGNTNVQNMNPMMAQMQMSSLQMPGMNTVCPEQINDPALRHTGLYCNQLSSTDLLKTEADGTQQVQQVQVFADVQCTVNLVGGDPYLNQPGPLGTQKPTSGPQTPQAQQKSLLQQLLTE

Data set [7] addresses Peroxisome proliferator-activated receptor gamma/Nuclear receptor coactivator 3 (Homo sapiens, UniProt P37231). In words: TR-FRET dose response biochemical High Throughput Screening assay for agonists of the steroid receptor coactivator 3 (SRC-3) recruitment by the peroxisome proliferator-activated receptor gamma (PPAR gamma): non-selective agonists. [Related pubchem assays: 1301 (Confirmation screen.), 1048 (Primary screen.)]. The data set is classed as functional.

For data set [8], the target named is Peroxisome proliferator-activated receptor gamma/Nuclear receptor coactivator 2 (Homo sapiens, UniProt P37231). In words: TR-FRET dose response biochemical High Throughput Screening assay for agonists of the steroid receptor coactivator 2 (SRC-2) recruitment by the peroxisome proliferator-activated receptor gamma (PPAR gamma): non-selective agonists. [Related pubchem assays: 1297, 1032 ]. The data set is classed as functional.

For data set [9], the target named is Voltage-gated inwardly rectifying potassium channel KCNH2 (Homo sapiens, UniProt Q12809). As to conditions: Potency.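 Note: confirmatory quantitative high-throughput screen measuring inhibition of hERG channel activity.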
Chain of Voltage-gated inwardly rectifying potassium channel KCNH2 (Q12809 whole entry): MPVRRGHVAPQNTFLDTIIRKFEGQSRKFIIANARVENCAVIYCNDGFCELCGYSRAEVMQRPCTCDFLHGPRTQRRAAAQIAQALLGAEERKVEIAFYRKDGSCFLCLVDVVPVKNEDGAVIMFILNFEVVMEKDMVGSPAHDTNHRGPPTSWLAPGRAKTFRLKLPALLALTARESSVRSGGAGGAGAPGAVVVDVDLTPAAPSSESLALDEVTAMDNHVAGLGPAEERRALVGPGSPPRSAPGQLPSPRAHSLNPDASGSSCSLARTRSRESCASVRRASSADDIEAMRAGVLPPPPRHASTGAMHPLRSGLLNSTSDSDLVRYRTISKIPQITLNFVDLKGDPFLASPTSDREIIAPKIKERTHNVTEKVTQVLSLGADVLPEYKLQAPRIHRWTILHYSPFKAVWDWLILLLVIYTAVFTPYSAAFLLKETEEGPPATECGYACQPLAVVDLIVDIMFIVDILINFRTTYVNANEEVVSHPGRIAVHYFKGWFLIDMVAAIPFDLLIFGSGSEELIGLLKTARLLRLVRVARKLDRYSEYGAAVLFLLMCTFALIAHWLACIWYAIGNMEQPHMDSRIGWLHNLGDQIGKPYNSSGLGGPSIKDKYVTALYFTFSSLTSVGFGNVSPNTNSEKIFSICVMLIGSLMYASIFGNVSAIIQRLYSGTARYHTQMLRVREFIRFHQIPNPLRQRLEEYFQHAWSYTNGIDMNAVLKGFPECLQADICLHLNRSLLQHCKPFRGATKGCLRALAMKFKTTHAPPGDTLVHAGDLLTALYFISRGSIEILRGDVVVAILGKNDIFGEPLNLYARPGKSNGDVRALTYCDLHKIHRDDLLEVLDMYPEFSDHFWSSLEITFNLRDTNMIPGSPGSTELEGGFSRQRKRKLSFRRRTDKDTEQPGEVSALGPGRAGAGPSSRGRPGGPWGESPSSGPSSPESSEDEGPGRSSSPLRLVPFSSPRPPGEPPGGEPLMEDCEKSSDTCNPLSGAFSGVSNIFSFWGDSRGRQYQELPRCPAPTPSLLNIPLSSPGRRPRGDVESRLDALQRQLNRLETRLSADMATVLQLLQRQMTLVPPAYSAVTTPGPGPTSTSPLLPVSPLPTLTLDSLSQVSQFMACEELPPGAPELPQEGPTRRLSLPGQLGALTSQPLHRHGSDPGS
The next data set concerns the target T4, CAAX prenyl protease 2 (Saccharomyces cerevisiae S288c, UniProt Q03530).
T4 sequence (Q03530 whole entry): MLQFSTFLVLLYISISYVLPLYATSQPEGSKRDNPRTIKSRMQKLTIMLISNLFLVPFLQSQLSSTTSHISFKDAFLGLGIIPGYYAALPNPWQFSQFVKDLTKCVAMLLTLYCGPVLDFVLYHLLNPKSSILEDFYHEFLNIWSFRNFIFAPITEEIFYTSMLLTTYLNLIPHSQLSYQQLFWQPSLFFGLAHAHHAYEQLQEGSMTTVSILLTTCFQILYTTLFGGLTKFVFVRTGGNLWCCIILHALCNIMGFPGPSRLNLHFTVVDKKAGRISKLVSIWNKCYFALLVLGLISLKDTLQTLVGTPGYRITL
The data set is classed as biochemical.

A further data set concerns the target Mu-type opioid receptor (Homo sapiens, UniProt P35372). The data set is classed as functional, cell-based.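 Note: U2OS cells with beta-arrestin recruitment to OPRM1 by beta-gal complementation.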
In data set [10] the target is 5-hydroxytryptamine receptor 2A (Mus musculus, UniProt P35363). The data set is classed as functional, cell-based.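 Note: CHO-K1 cells with tagged receptor and beta-arrestin; agonist potency measured as compound-induced activation of the receptor.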
A further data set concerns the target T5, Coagulation factor XII (Homo sapiens, UniProt P00748).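 Note: activated factor XIIa alpha cleaving a fluorogenic AMC peptide substrate; inhibitor potency from loss of enzyme activity.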
T5 sequence (P00748 whole entry): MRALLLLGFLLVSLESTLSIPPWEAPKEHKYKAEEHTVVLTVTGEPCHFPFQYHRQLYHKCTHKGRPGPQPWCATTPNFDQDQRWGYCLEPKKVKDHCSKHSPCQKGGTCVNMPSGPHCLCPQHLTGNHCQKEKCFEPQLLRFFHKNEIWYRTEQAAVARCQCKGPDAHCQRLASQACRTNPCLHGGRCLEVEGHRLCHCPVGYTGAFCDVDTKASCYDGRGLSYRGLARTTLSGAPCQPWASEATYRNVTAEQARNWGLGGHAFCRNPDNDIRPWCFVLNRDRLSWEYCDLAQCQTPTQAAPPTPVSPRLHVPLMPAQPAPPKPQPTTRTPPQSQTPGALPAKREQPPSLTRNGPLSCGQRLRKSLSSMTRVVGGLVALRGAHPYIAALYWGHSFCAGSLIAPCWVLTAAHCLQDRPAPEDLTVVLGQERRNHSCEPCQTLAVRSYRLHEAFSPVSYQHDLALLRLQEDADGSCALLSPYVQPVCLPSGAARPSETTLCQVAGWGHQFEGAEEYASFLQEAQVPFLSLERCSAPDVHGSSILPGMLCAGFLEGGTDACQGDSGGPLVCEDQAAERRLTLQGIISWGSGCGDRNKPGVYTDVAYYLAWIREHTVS
The data set is classed as functional.

The target in data set [11] is T6, Mannose-6-phosphate isomerase (Homo sapiens, UniProt P34949).
T6 sequence (P34949 whole entry): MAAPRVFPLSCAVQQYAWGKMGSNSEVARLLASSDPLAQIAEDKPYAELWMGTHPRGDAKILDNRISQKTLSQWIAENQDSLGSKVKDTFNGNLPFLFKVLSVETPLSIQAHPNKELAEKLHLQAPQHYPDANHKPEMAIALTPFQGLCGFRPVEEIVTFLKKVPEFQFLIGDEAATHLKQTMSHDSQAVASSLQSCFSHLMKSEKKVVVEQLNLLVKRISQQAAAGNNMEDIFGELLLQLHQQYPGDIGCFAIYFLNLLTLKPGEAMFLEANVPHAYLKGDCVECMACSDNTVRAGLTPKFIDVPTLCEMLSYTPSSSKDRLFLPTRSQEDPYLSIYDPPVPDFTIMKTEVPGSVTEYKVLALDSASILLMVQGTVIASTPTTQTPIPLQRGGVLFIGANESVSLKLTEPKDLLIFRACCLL
In words: PMI enzyme inhibitors, confirmation, biochemical, fluorescence intensity (AID 1535).

For the next data set, the target named is T7, Phosphomannomutase 2 (Homo sapiens, UniProt O15305).
T7 sequence (O15305 whole entry): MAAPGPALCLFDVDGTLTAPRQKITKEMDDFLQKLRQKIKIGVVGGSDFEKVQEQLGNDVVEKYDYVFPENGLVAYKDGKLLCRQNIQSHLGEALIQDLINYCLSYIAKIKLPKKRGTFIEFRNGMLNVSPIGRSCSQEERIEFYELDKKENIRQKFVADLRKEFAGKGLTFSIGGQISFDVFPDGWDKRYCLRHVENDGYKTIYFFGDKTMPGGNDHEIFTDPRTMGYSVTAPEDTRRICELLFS
In words: Counter screen SAR assay for PMM2 inhibitors via a fluorescence intensity assay. [Related pubchem assays (depositor defined):AID1545, AID1574]. A general note: The purpose of a counterscreen is to sort out artefacts and off-target activity.

In data set [12] the target is Dual specificity tyrosine-phosphorylation-regulated kinase 1A (Rattus norvegicus, UniProt Q63470). The data set is classed as biochemical, Homo sapiens.

Chain of Peroxisome proliferator-activated receptor gamma/Nuclear receptor coactivator 3 (P37231 whole entry): as the sequence (P37231 whole entry) above
Chain of Peroxisome proliferator-activated receptor gamma/Nuclear receptor coactivator 3 (Q9Y6Q9 whole entry, further chain): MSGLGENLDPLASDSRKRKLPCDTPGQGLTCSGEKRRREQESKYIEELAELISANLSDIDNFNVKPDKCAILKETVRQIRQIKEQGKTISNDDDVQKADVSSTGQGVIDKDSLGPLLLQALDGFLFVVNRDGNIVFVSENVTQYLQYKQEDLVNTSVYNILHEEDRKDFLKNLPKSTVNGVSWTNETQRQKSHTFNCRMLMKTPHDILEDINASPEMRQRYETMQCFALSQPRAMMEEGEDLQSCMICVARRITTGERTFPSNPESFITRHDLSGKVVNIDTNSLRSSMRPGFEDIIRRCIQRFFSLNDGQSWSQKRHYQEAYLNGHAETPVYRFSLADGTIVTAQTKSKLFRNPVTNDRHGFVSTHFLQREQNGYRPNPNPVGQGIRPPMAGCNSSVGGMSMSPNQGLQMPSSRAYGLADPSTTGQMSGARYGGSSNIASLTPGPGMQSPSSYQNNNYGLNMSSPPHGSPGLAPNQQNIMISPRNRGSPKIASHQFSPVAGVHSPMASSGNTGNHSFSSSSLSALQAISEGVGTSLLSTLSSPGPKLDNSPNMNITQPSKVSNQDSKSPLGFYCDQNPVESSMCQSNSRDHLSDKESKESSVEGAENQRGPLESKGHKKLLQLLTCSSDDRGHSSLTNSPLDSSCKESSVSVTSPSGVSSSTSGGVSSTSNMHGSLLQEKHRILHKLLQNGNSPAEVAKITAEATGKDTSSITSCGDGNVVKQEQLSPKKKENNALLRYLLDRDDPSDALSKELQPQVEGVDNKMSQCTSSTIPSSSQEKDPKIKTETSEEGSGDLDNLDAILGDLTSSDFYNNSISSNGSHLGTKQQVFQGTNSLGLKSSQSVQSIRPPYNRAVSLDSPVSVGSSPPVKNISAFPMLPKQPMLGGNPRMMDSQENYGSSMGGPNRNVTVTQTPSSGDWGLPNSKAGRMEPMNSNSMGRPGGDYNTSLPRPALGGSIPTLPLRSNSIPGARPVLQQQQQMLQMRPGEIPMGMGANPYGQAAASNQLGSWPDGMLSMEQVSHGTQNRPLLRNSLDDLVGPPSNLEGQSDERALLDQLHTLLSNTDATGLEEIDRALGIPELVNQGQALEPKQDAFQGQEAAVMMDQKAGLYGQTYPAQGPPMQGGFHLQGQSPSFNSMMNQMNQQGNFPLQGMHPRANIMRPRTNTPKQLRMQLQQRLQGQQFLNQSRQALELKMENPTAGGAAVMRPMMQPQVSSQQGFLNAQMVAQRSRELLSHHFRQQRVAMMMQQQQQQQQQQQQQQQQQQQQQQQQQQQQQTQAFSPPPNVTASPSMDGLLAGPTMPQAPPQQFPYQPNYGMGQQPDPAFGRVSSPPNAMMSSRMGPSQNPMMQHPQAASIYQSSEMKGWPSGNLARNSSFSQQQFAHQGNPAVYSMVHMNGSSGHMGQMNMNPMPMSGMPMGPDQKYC

For orientation: EC50 means the concentration needed to bring the measured effect to its halfway point. Broadly, the IC50 is the concentration needed to halve the response being measured. With `CCCCN(C)CCNC(=O)c1ccc(Cn2c(=S)[nH]c3ccc(Br)cc3c2=O)cc1`, the EC50 in data set [1] was 0.606 µM (active); in [3], > 60 µM (not active). The CC50 in data set [2] was 19.1 µM (active). The IC50 on Bcl-2-related protein A1 is > 20 µM (inactive); in [4] it was 19.5 µM (active); in [5], > 20 µM (inactive).

Consider `C[C@@H](O)C1NC(=O)[C@H](CCCCN)NC(=O)c2cc([N+](=O)[O-])cc(F)c2NCCCC[C@@H](C(N)=O)NC1=O` (stereo partly drawn), for which the IC50 on Bcl-2-related protein A1 is > 20 µM (inactive); in [4] it was 14.2 µM (active); in data set [5], > 20 µM (inactive).

In the case of `CCCCCCC(=O)Nc1cc(Cl)ccc1C(=O)O`, the IC50 on Hexokinase is > 25 µM (inactive).

The AC50 is the concentration giving half of the maximal activity seen. For the compound `Cc1cccc(C(=O)NC(=S)N2CCN(C)CC2)c1`, the AC50 result on Cytochrome P450 2C9 is reported as “inconclusive”.

As to `CC(=O)c1sc(N2CCOCC2)nc1-c1ccccc1`, the EC50 in [6] was > 26.5 µM (inactive); in [7] it was > 79.4 µM (not active); in [8], > 8.82 µM (not active).

On to `NC(Cc1cccc(-c2ccccc2CP(=O)(O)O)c1)C(=O)O` (stereo not drawn), for which, in [9], the AC50 was 35.5 µM (inconclusive).

As to `CN(C)S(=O)(=O)c1ccc(NC(=O)/C=C/c2ccccc2Cl)cc1`, at CAAX prenyl protease 2, the AC50 is 4.18 µM (active).

With `Cn1cc(C(F)(F)F)nc1-c1ccc(OCC(O)CNCCOc2ccc(O)c(C(N)=O)c2)cc1` (stereo not drawn), the results for the EC50 (at Mu-type opioid receptor; in data set [10]) were 92.4 µM (inactive) and 0.0952 µM (active), respectively. Also, in data set [9], the AC50 is 25.1 µM (inconclusive).

With `O=C(Cn1sc2ccccc2c1=O)NCc1ccccc1`, the IC50 on Hexokinase is 5.72 µM (active).

As for `CCN(CCCNC(=O)CSc1cc(=O)n(C)c2cc(Cl)ccc12)Cc1ccccc1`, the figures for the EC50 in [6], in data set [7] and in data set [8] were > 79.4 µM (inactive), > 79.4 µM (not active) and > 79.4 µM (not active), respectively.

Take `CCC(C)NC(=O)CSc1nc2ccsc2c(=O)n1NC(=O)c1ccccc1` (stereo not drawn): the IC50 at Coagulation factor XII was > 50 µM (inactive).

As to `Cc1ccc(C=Nn2c(-c3ccncc3)n[nH]c2=S)cc1`, the results for the IC50 (in data set [11]; on Phosphomannomutase 2) were 16.1 µM (active) and > 100 µM (inactive), respectively.

In the case of `COc1ccc(/C=C(\C#N)C(N)=O)c(OC)c1`, the AC50 result on Cytochrome P450 2C9 is reported as “inconclusive”.

On to `CC1Cc2cc3c(cc2C(c2ccc(N)cc2)=NN1)OCO3` (stereo not drawn), for which, in data set [9], the AC50 was 35.5 µM (inconclusive).

With `O=C(NCC(=O)N1CCN(S(=O)(=O)/C=C/c2ccccc2)CC1)c1ccccc1F`, the IC50 at Coagulation factor XII was > 50 µM (inactive).

As to `O=C(O)c1cccc(CN2CCCCC2)c1`, the concentration at half-maximal activity (AC50) result on Cytochrome P450 2C9 is recorded as “inconclusive”.

For the compound `CC(C)(C)c1ccc(C(=O)N2CCC(=O)c3ccc(Cl)cc32)cc1`, the IC50 at Hexokinase is > 25 µM (inactive).

Turning to `CCN1CCN(C(=O)CSc2cc(=O)n(C)c3ccccc23)CC1`, the EC50 in [6] is > 79.4 µM (inactive); in [7], > 79.4 µM (not active); in [8], > 79.4 µM (not active).

Regarding `O=C1NC(=S)S/C1=C/c1ccc(Oc2cnccn2)cc1`, the AC50 in [12] was 2.81 µM (active).

On to `Cc1cc(C)c2sc(N(CCCN(C)C)C(=O)c3ccc(S(=O)(=O)N(C)Cc4ccccc4)cc3)nc2c1`, for which the IC50 at Bcl-2-related protein A1 was > 20 µM (inactive); in [4], 4.77 µM (active); in data set [5] it was 2.65 µM (active).
